Experimental data as given in patent US20150328329A1, “LIGANDS THAT TARGET HCV-E2 BINDING SITES ON CD81 AND THERAPEUTIC METHODS USING THEM” (American University of Cairo, priority 2012, published 2015).

Columns and labels:
recombinant CD81-LEL = target: T1, recombinant CD81-LEL (Homo sapiens, UniProt P60033); experiment: SPR (Biacore T100) binding of additional ligands to immobilized CD81-LEL (Example 6); conditions: Table E, ligand 200 uM in PBS-1% DMSO
T1 construct: the large extracellular loop of CD81 (CD81-LEL); GST; His; Shoshana Levy Lab, Stanford (gift)
T1 sequence (P60033 113-201 limits assumed): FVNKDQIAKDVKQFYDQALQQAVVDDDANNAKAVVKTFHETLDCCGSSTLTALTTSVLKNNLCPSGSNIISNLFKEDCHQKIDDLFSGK
Procedure: SPR analysis was performed using a Biacore T100 workstation (GE Healthcare, NJ, USA). A recombinant form of the CD81-LEL protein with a GST-tag (Shoshana Levy Lab-Stanford) was used to determine the binding affinities of the ligands in the above list. 10 uM CD81-LEL-His diluted into 10 mM sodium acetate buffer pH 4.5 was immobilized for […] at a flow speed of 5 ul/min onto a CM5 sensor chip using amine coupling (EDC-NHS). Approximately 20,000 RU of protein were immobilized on the chip. The ligands were prepared as 200 uM solutions in PBS-1% DMSO (the running buffer) and they were introduced to the protein using a pre-programmed 3 min association and 1 min dissociation interval. Ligands that bind have a positive RU (response units) number and the strength of binding to the CD81 protein is related to the magnitude of the RU number; the larger the number the more binding.

[1] = target: T2, native CD81 on Raji cells (Homo sapiens, UniProt P60033); experiment: Competition assay: inhibition of FITC-labeled JS-81 anti-CD81 antibody binding to native CD81 on live Raji cells (flow cytometry); assay type: cell-based
T2 construct: endogenous in cells; host or cells: Raji (human B cell line)
T2 sequence (P60033 1-236): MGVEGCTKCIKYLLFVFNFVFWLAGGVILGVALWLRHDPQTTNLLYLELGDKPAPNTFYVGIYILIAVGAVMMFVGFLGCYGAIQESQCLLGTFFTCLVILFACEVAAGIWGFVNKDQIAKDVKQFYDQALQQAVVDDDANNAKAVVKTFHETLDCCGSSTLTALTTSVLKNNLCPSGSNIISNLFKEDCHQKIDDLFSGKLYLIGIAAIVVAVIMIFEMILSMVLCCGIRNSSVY
From the text: A subset of these ligands and some of those listed in the patent have been tested to identify those ligands that bind to the correct region of the CD81 protein and for binding to native CD81 on living cells (a Raji cell line). This assay tests three concentrations of the ligand to determine if the ligand is capable of inhibiting the binding of an antibody called JS-81. This antibody is known to bind to the region of the CD81 protein we have targeted. If the ligand decreases JS-81 binding as you increase the concentration of the ligand, it is 1) binding to native CD81 on the Raji cells and 2) it is binding to the correct region of the protein.
For antibody neutralization assay Raji cells were used, a human B cell line that expressed high amounts of CD81 on the surface (data not shown). Cells were grown in RPMI medium (10% FCS, 1% penicillin/streptomycin, 1% L-glutamine, 1% non-essential amino acids, 1% sodium pyruvate, pH 7.4, at 37° C. with 5% CO2). 2×10^5 cells were incubated with or without different concentrations (50 μM, 100 μM, 400 μM and 1 mM) of indicated inhibitor for 20 min at room temperature, subsequently 1 ul (16 ng/μl) of FITC-labeled anti CD81 antibody (BD Pharmingen, 551108) was added to the cells and incubated for 20 min (antibody titration was performed to obtain a working dilution range, data not shown). Cells were washed and analyzed by flow cytometry using fluorescence-activated cell sorting (FACS) (BD FACSCalibur, software: Cell Quest Pro). Mean Fluorescence Intensity MFI was calculated using Flowjo software (TreesStar, www.flowjo.com).

SMILES	Binding (RU) (recombinant CD81-LEL)	Inhibition of JS-81 Binding (%) ([1]; 50 μM ligand)	Inhibition of JS-81 Binding (%) ([1]; 100 μM ligand)	Inhibition of JS-81 Binding (%) ([1]; 400 μM ligand)	other results
CC1CCCC(CC(=O)O)(CC(=O)O)C1 (stereo not shown) [Ligand 3001]	4.6				
Cc1ccc(NC(=S)NC(=O)c2ccccc2)cc1NC(=S)NC(=O)c1ccccc1 [Ligand 5856]	2.7				
CCC(C)(C)c1ccc(Oc2cccc(C(=O)O)c2)cc1 [Ligand 7962]	14.7	0	0	19	
CC(C)(C)c1ccc(OCC(=O)O)cc1 [Ligand 8481]	1.8				
Cn1ncc2c(Nc3ccc(Br)cc3)nc(Nc3ccc(Br)cc3)nc21 [Ligand 11667]	9.6				
CCNc1ccccc1C(=O)O [Ligand 16162]	5.1				
CC(C)Oc1ccc(C(=O)O)cc1 [Ligand 16646]	4.9				
N=C(N)Nc1ccc(NC(=N)N)cc1 [Ligand 20586]	17.4				
O=C(O)c1ccc(N2CCCCC2)cc1O [Ligand 23895]	10	0	0	17	
Cc1ccc(-c2cc(C(=O)O)c3ccccc3n2)c(C)c1 [Ligand 25678]	11.1	0	4	19	
O=C(O)c1[nH]c(=O)[nH]c(=O)c1F [Ligand 31712]	4.1				
O=C(O)/C(=C/c1ccccc1)c1ccccc1 [Ligand 40614]	50.8	0	8	26	
C=CCc1ccccc1OCC(=O)O [Ligand 60239]	5.8				
CC(OC(=O)Nc1cccc(Cl)c1)C(=O)O (stereo not shown) [Ligand 73170]	4.3				
CNC1(C(N)=O)CCNCC1 [Ligand 75846]		0	0	52	
O=C(O)Cn1ccc2ccccc21 [Ligand 75866]	18.9	0	1	31	
COc1cccc(C2Nc3cccc4cccc(c34)N2)c1 [Ligand 76823]	5.4				
c1cncc(C2CCCCN2)c1 (stereo not shown) [Ligand 87504]	57.9	0	6	20	
O=c1[nH]c2ccccc2n1C1=CCNCC1 [Ligand 88883]	5.4				
O=C(O)CCc1cccnc1 [Ligand 89720]	9.2				

SMILES	Binding (RU) (recombinant CD81-LEL)	Inhibition of JS-81 Binding (%) ([1]; 50 μM ligand)	Inhibition of JS-81 Binding (%) ([1]; 100 μM ligand)	Inhibition of JS-81 Binding (%) ([1]; 400 μM ligand)	other results
Cc1cc(C)c(N)c(C(=O)O)c1 [Ligand 90444]	13.1	0	0	24	
O=C(O)C(Cc1ccccc1-c1ccccc1)C(=O)O [Ligand 94914]	7.2				
CCCCNCC1CCCO1 (stereo not shown) [Ligand 97538]	4.2				
O=C(O)c1cc(O)ccc1/N=N/c1ccccc1 [Ligand 106863]	11.6	0	0	19	
NC(=O)NC(=O)c1nccnc1C(=O)O [Ligand 117922]	10.2	0	12	26	
O=C(O)c1ccc(OCCOc2ccccc2)cc1 [Ligand 120631]	8.3				
NS(=O)(=O)c1ccc(/N=N/c2c(O)c(C(=O)O)cc3ccccc23)cc1 [Ligand 134137]	10	0	6	26	
CCNc1nc(Cl)nc(-c2cn(-c3ccccc3)c3ccccc23)n1 [Ligand 142446]	2.5				
O=C(O)/C=C\C(=O)Nc1cccc2cccnc12 [Ligand 144958]	4.1	0	54	12	
CC1=CC(=O)CC(C)(C)C1(O)/C=C/C(C)=C/C(=O)O (stereo not shown) [Ligand 148832]	2.9				
COc1cc(/N=N/c2ccccc2C(=O)O)ccc1O [Ligand 153172]	2.6				
Cc1ccc(C)c(C(=O)CCC(=O)O)c1 [Ligand 215276]	7.4				
Cc1cc(N2CCN(C)CC2)n2nc(-c3ccc(Cl)cc3)nc2n1 [Ligand 252359]	9.3				
CCOc1cccc2cc(C(N)=O)c(=N)oc12 [Ligand 263636]	3.4				
O=C(O)c1ccccc1NCc1ccco1 [Ligand 331931]	5.9				
N=C(N)NC(=S)Nc1ccc(Cl)cc1 [Ligand 403374]	12.6				
CCCCCCC(C)OC(=O)c1ccccc1C(=O)O (stereo not shown) [Ligand 524615]	4.1				
O=C(Nc1ccc(Br)c2ccccc12)c1ccc2ccccc2c1O [Ligand 601359]	4.1				
NC(=O)c1ccc2c(c1)S(=O)(=O)c1ccccc1C2=O [Ligand 689002, 9-Oxo-9H-thioxanthene-3-carboxamide 10,10-dioxide]					inhibition at 50 µM ([1]; 50 μM ligand): 0%; inhibition at 100 µM ([1]; 100 μM ligand): 0%; inhibition at 400 µM ([1]; 400 μM ligand): 14%
